In general, melting point refers to the temperature, or range, at which the solid turns liquid.

The compound `N=C(NCc1ccn(C2=CC3=C(CC2)CCc2[nH]c(=O)c(=O)n(CC(=O)O)c23)c1)Nc1ccccc1` came in with a melting point of more than 225 °C. In turn, `COC(=O)C(OCc1csc(-c2ccc(F)cc2)n1)C(=O)c1ccccc1` (stereo not given) came in with a melting point of 86 to 89 °C. Compound `CC(C)(C)Nc1c(NCc2ccc(F)cc2C(F)(F)F)c(=O)c1=O` yielded a melting point of 192 to 194 °C.

The compound `CC1(C)OC(=O)Nc2ccc(-c3cc(C#N)ccc3F)cc21` displayed a melting point of 229 to 230 °C. Compound `CCn1nc(C(C)(C)C)c2c1C(=O)NCC(c1ccc(O)cc1)=N2` yielded a melting point of 264 °C. Regarding `CNCc1ccc2oc(-c3ccccc3C#N)c(Br)c2c1`, the melting point stood at 114 °C. Regarding `NC(=O)N1C(=O)C(C(=O)c2cc(Cl)cs2)c2nc(Cl)ccc21` (stereo not given), the melting point was more than 250 °C.

As for `NCCCOc1ccc(OCc2ccccc2)cc1`, the melting point was determined as 115 °C. Take `COC(=O)c1cccnc1C(=O)CC(=O)c1ccccc1`: the melting point came to 87 °C.

For `O=C(O)CCc1c[nH]c2c(C(=O)c3ccccc3)cccc12`, the melting point amounted to 166 °C. As for `CN1C(=O)CC[C@]2(C)c3ccc(-c4ccc5ccccc5c4)cc3CC[C@@H]12`, the melting point was in the range of 221 to 223 °C.

As to `COC1OC(=O)CC(C)(C)C1O` (stereo not given), the melting point amounted to 72 °C. As for `COc1nc(C)c2c(c1C#N)CCCC2`, the melting point stood at 116 °C. The value for `CCOc1cc2cc(C(=O)N3CC(CCl)c4c3cc(N3C(=O)c5ccccc5C3=O)c3ncccc43)[nH]c2c(OCC)c1OCC` (stereo not given) was 189 to 191 °C. The compound `CC1=CC(=O)C(C)=C(CCC(C)(C)COc2ccc(CC3SC(=O)NC3=O)cc2)C1=O` (stereo not given) yielded a melting point of 173 °C.

In turn, `OCc1cc(Cl)cc(Cl)c1Cl` returned a melting point of 90 to 93 °C. Turning to `O=C1c2cccc(N3CCCC3)c2OC12CC2`, the melting point turned out to be 102 °C. `NC(=O)Cc1ccc2c(c1)sc1ccc(Cl)cc12` came in with a melting point of 92 to 99 °C.

For the compound `CC(O)CNCC(O)COc1ccccc1C#N` (stereo not given), the melting point was 108 °C. Compound `CN(C)C(=O)n1nc(-c2ccncc2)nc1-c1ccncc1` displayed a melting point of 140 to 142 °C. In turn, `O=[N+]([O-])c1ccc(CN2CCC(c3cc(-c4ccc(Cl)cc4)[nH]n3)CC2)cc1` gave a melting point of 187 to 190 °C. Compound `CN(C)C(=O)c1nc(-c2ccccc2)nc2c1c1ccc(Cl)cc1n2C` registered a melting point of 211 to 213 °C. The value for `CC(C)Cn1nc(-c2ccc(O)cc2O)c2cccc(C(F)(F)F)c21` was 91 to 92 °C; that for `Cn1c(=O)cc(N)n(-c2ccc(Cl)cc2Cl)c1=O` was 249 to 251 °C; that for `Cc1nc(N2CCN(Cc3ccccc3)C2=O)sc1C(=O)NCc1cccc(F)c1` was 169 to 171 °C.

`Cc1nc(-c2ccccc2)oc1C(N)=O` displayed a melting point of 187 to 190 °C. As to `C=C1CC2(C)C(=O)CC(O)C2C2CCC3=CC(=O)CCC3C12` (stereo not given), the melting point was determined as 237 °C. Take `Oc1ccc2c(c1)C[C@H](O)[C@H](O)C2` (relative stereo): the melting point was 193 to 196 °C.

`COCC1CCCN1Cc1ccc(-c2cc3ncnc(Nc4ccc5[nH]ccc5c4)c3s2)cc1` (stereo not given) registered a melting point of 161 to 177 °C. In turn, `CC(C)Cn1c(=O)n(C)c(=O)c2c1ncn2CCCO` yielded a melting point of 135 to 137 °C. Turning to `CCn1ncnc1COc1nc2c(cc1C(C)(C)C)nnn2-c1ccccc1`, the melting point was in the range of 161 to 163 °C.

For the compound `O=C1CCCc2nc3ccccc3c(NCc3ccc(F)cc3)c21`, the melting point was in the range of 158 to 159 °C. The compound `COc1ccc(C(=O)Nc2cc(NC(=O)c3cccc(N(C)C)c3)ccc2Br)cc1OC` returned a melting point of 184 °C.

Compound `CC(C)C[C@@H](CO)NC(=O)[C@@H](O)[C@@H](Cc1ccc(S(C)(=O)=O)cc1)NC(=O)OCc1ccccc1` came in with a melting point of 165 to 173 °C. As to `CCOC(=O)C1=C(COCCNS(N)(=O)=O)NC(C)=C(C(=O)OC)C1c1ccccc1Cl` (stereo not given), the melting point lay within 150 to 152 °C. `S=C(Cc1ccccc1)n1c(-c2cscn2)nc2ccccc21` displayed a melting point of 122 to 123 °C. The compound `NC(=S)NN=C(CNC(=O)C1CCCCC1)c1ccccc1` had a melting point of 104 to 110 °C. `COc1cc(OC)nc(Cc2ccccc2NC(=O)OC(C)(C)C)n1`: the melting point was 98 to 100 °C.

The compound `Cc1ccc2[nH]ncc2c1OCc1ccccc1` returned a melting point of 94 to 95 °C. Compound `O=C(O)c1sccc1OC(F)F` registered a melting point of 98 to 100 °C. `Oc1ccc(C2(c3ccc(O)cc3)CCC(c3ccccc3)CC2)cc1`: the melting point fell in the range of 262 to 263 °C.

`CCC(CC)NC1=NS(=O)(=O)c2ccc(Cl)cc2N1` gave a melting point of 224 to 226 °C. The compound `Oc1cc(C(F)(F)F)[nH]n1` showed a melting point of 211 to 215 °C. Compound `O=C1CCN(CCc2ccccc2)CC1C(c1ccccc1)c1ccccc1` (stereo not given) returned a melting point of 73 to 76 °C. As to `CCc1noc(-c2cn(-c3cnccn3)cn2)n1`, the melting point lay in the range of 166 to 167 °C. Compound `CCC1Cc2ccc(C)cc2C1=O` (stereo not given) returned a melting point of 50 to 52 °C. Compound `COc1cc(-c2ccc(C#N)o2)ccc1Br` yielded a melting point of 76 to 77 °C. With `COCCOCCOC(=O)C1C=Nc2c(ccc3cccnc23)C1=O` (stereo not given), the melting point lay within 164 to 165 °C.

The compound `CCCCCCCCCNC(=O)CCC(=O)OO` returned a melting point of 85 to 91 °C. The compound `O=C1CC(c2ccc(Cl)cc2Cl)Cc2[nH]c3ccc(Cl)cc3c(=O)c21` (stereo not given) returned a melting point of 308 to 310 °C.

As for `COc1cc(C=C2NC(=O)NC2=O)cc(OC)c1`, the melting point was 285 to 287 °C. The value for `C[C@H](NC(=O)OCc1ccccc1)C(=O)N1CCC[C@H]1C(=O)NC1CCCCCC1` was 110 to 113 °C; that for `CCCCCCCCCCCCCCCCC#CCBr` was 34 to 35 °C; that for `CC1(CO)COC(Cn2ccnc2)(c2ccc(Cl)cc2Cl)OC1` (stereo not given) was 174 to 175 °C. In turn, `CS(=O)c1ccc(Oc2ccc(Cl)c(Cl)c2)nc1C(N)=O` (stereo not given) registered a melting point of 185 to 187 °C.

`CCCn1c(=O)n(-c2ccc3c(c2)OCO3)c2ncc(N)cc21` displayed a melting point of 177 to 178 °C.

In turn, `O=C(Nc1ccc(C(=O)N2Cc3cccn3Cc3ccccc32)cc1)c1cccnc1Oc1ccc(Cl)cc1` registered a melting point of 211 to 212 °C. The compound `COC(=O)C(=CNc1ccc(F)c(F)c1OCC(C)O)C(=O)OC` (stereo not given) showed a melting point of 107 to 108 °C.

Compound `COc1ccccc1-n1c(-c2cc(-c3ccncc3)c(N3CCOCC3)s2)nc2ccccc2c1=O` yielded a melting point of 204 to 205 °C. For `Cc1cc(C(=O)CCc2cc(-c3ccc(C(F)(F)F)cc3)nn2Cc2ccccc2)ccc1OCC(=O)O`, the melting point fell in the range of 175 to 180 °C.

The compound `COC(=O)COc1ccc(C(=O)Nc2ccccc2Sc2ccccc2-c2nnn[nH]2)cc1` came in with a melting point of 204 to 205 °C.

Turning to `CCCCCCCCCCCC#Cc1ccccc1C=CP(=O)(O)O`, the melting point fell in the range of 82 to 83 °C. In turn, `CCc1cc(CC)c(-c2c(OCS(C)(=O)=O)c(C)nn(C)c2=O)c(CC)c1` showed a melting point of 142 to 143 °C. The value for `CC(=O)Nc1nc(CCc2ccc(C(=O)NC(=N)N)cc2)c(Cc2ccc(S(C)(=O)=O)cc2)s1` was 108 to 110 °C. Then `CCCCCCCCCCCCCCOc1cc(OCCCCCCc2cccc(O)c2O)cc(C(=O)O)c1`, with 92 to 94 °C.

The values above are taken from a melting point compilation (Tetko et al.; mined from patent text by program, amines drawn as free bases though some values may be those of a salt).
